Experimental data as given in PubChem BioAssay (NCI).
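Test compounds were applied to cells in 96-well plates for 48 hours at 5 doses. GI50 marks 50% less growth. Definition used: TGI = concentration required for complete inhibition of growth.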

Tests used:
Assay in all cases: DTP human tumour cell line panel, 48 h
SF-539 CNS = test system: SF-539 CNS
T-47D breast = test system: T-47D breast
SNB-75 CNS = test system: SNB-75 CNS
NCI-H226 lung = test system: NCI-H226 lung
OVCAR-8 ovarian = test system: OVCAR-8 ovarian
MDA-MB-231 breast = test system: MDA-MB-231 breast
A498 renal = test system: A498 renal
OVCAR-3 ovarian = test system: OVCAR-3 ovarian
CCRF-CEM leukemia = test system: CCRF-CEM leukemia
SK-MEL-28 melanoma = test system: SK-MEL-28 melanoma
HCT-15 colon = test system: HCT-15 colon
UACC-62 melanoma = test system: UACC-62 melanoma
SK-MEL-5 melanoma = test system: SK-MEL-5 melanoma
A549 NSCLC = test system: A549 NSCLC
HOP-92 NSCLC = test system: HOP-92 NSCLC
HCT-116 colon = test system: HCT-116 colon
NCI-H460 lung = test system: NCI-H460 lung
RPMI-8226 leukemia = test system: RPMI-8226 leukemia
K-562 leukemia = test system: K-562 leukemia
SF-295 CNS = test system: SF-295 CNS
OVCAR-4 ovarian = test system: OVCAR-4 ovarian
SR leukemia = test system: SR leukemia
U251 CNS = test system: U251 CNS
PC-3 prostate = test system: PC-3 prostate
MDA-MB-435 = test system: MDA-MB-435
HS 578T breast = test system: HS 578T breast
SN12C renal = test system: SN12C renal
COLO 205 colon = test system: COLO 205 colon
HOP-62 NSCLC = test system: HOP-62 NSCLC
OVCAR-5 ovarian = test system: OVCAR-5 ovarian
SNB-19 CNS = test system: SNB-19 CNS
NCI-H23 lung = test system: NCI-H23 lung
MALME-3M melanoma = test system: MALME-3M melanoma
MCF7 breast = test system: MCF7 breast
LOX IMVI melanoma = test system: LOX IMVI melanoma
SK-OV-3 ovarian = test system: SK-OV-3 ovarian
HL-60(TB) leukemia = test system: HL-60(TB) leukemia
UO-31 renal = test system: UO-31 renal
MOLT-4 leukemia = test system: MOLT-4 leukemia
SW-620 colon = test system: SW-620 colon
786-0 renal = test system: 786-0 renal
ACHN renal = test system: ACHN renal
IGROV1 ovarian = test system: IGROV1 ovarian
DU-145 prostate = test system: DU-145 prostate
NCI/ADR-RES ovarian = test system: NCI/ADR-RES ovarian
CAKI-1 renal = test system: CAKI-1 renal
EKVX NSCLC = test system: EKVX NSCLC
M14 melanoma = test system: M14 melanoma
RXF 393 renal = test system: RXF 393 renal
SF-268 CNS = test system: SF-268 CNS
KM12 colon = test system: KM12 colon
UACC-257 melanoma = test system: UACC-257 melanoma
HCC-2998 colon = test system: HCC-2998 colon
HT29 colon = test system: HT29 colon

CC1(C)N=C(N)N=C(N)N1c1ccc(CCc2ccc(Cl)cc2S(=O)(=O)F)c(Cl)c1
GI50 (SF-539 CNS): 5.54 µM
TGI (SF-539 CNS): 26.1 µM
GI50 (T-47D breast): 17 µM
TGI (T-47D breast): 45.2 µM
GI50 (SNB-75 CNS): 8.44 µM
TGI (SNB-75 CNS): 27.3 µM
GI50 (NCI-H226 lung): 17.9 µM
TGI (NCI-H226 lung): 44.3 µM
GI50 (OVCAR-8 ovarian): 7.2 µM
TGI (OVCAR-8 ovarian): 69.1 µM
GI50 (MDA-MB-231 breast): 10.3 µM
TGI (MDA-MB-231 breast): 67.5 µM
GI50 (A498 renal): 62.8 µM
TGI (A498 renal): > 100 µM
GI50 (OVCAR-3 ovarian): 4.82 µM
TGI (OVCAR-3 ovarian): 21.4 µM
GI50 (CCRF-CEM leukemia): 6.73 µM
TGI (CCRF-CEM leukemia): 44.4 µM
GI50 (SK-MEL-28 melanoma): 7.99 µM
TGI (SK-MEL-28 melanoma): 23.4 µM
GI50 (HCT-15 colon): 92.8 µM
TGI (HCT-15 colon): > 100 µM
GI50 (UACC-62 melanoma): 4.57 µM
TGI (UACC-62 melanoma): 31.5 µM
GI50 (SK-MEL-5 melanoma): 4.39 µM
TGI (SK-MEL-5 melanoma): 16.3 µM
GI50 (A549 NSCLC): 1.49 µM
TGI (A549 NSCLC): > 100 µM
GI50 (HOP-92 NSCLC): 16.6 µM
TGI (HOP-92 NSCLC): 58.3 µM
GI50 (HCT-116 colon): 2.56 µM
TGI (HCT-116 colon): 16.2 µM
GI50 (NCI-H460 lung): 3.12 µM
TGI (NCI-H460 lung): > 100 µM
GI50 (RPMI-8226 leukemia): 10.2 µM
TGI (RPMI-8226 leukemia): 38.5 µM
GI50 (K-562 leukemia): 6.81 µM
TGI (K-562 leukemia): > 100 µM
GI50 (SF-295 CNS): 4.82 µM
TGI (SF-295 CNS): > 100 µM
GI50 (OVCAR-4 ovarian): 9.09 µM
TGI (OVCAR-4 ovarian): 84.5 µM
GI50 (SR leukemia): 6.05 µM
TGI (SR leukemia): 76.5 µM
GI50 (U251 CNS): 4.42 µM
TGI (U251 CNS): 20.6 µM
GI50 (PC-3 prostate): 6.62 µM
TGI (PC-3 prostate): > 100 µM
GI50 (MDA-MB-435): 4.27 µM
TGI (MDA-MB-435): 25.4 µM
GI50 (HS 578T breast): 11.1 µM
TGI (HS 578T breast): 41.3 µM
GI50 (SN12C renal): 7.98 µM
TGI (SN12C renal): > 100 µM
GI50 (COLO 205 colon): 10.4 µM
TGI (COLO 205 colon): 24 µM
GI50 (HOP-62 NSCLC): 7 µM
TGI (HOP-62 NSCLC): 23 µM
GI50 (OVCAR-5 ovarian): 4.76 µM
TGI (OVCAR-5 ovarian): > 100 µM
GI50 (SNB-19 CNS): 7.95 µM
TGI (SNB-19 CNS): > 100 µM
GI50 (NCI-H23 lung): 6.51 µM
TGI (NCI-H23 lung): > 100 µM
GI50 (MALME-3M melanoma): 14.7 µM
TGI (MALME-3M melanoma): 60.3 µM
GI50 (MCF7 breast): 3.64 µM
TGI (MCF7 breast): 18.9 µM
GI50 (LOX IMVI melanoma): 4.04 µM
TGI (LOX IMVI melanoma): 20.6 µM
GI50 (SK-OV-3 ovarian): 19.1 µM
TGI (SK-OV-3 ovarian): > 100 µM
GI50 (HL-60(TB) leukemia): 13 µM
TGI (HL-60(TB) leukemia): 48.1 µM
GI50 (UO-31 renal): > 100 µM
TGI (UO-31 renal): > 100 µM
GI50 (MOLT-4 leukemia): 11.5 µM
TGI (MOLT-4 leukemia): 73.6 µM
GI50 (SW-620 colon): 2.66 µM
TGI (SW-620 colon): 17.7 µM
GI50 (786-0 renal): 5.21 µM
TGI (786-0 renal): > 100 µM
GI50 (ACHN renal): 44.6 µM
TGI (ACHN renal): > 100 µM
GI50 (IGROV1 ovarian): 0.942 µM
TGI (IGROV1 ovarian): > 100 µM
GI50 (DU-145 prostate): 5.91 µM
TGI (DU-145 prostate): > 100 µM
GI50 (NCI/ADR-RES ovarian): > 100 µM
TGI (NCI/ADR-RES ovarian): > 100 µM
GI50 (CAKI-1 renal): > 100 µM
TGI (CAKI-1 renal): > 100 µM
GI50 (EKVX NSCLC): 11.3 µM
TGI (EKVX NSCLC): > 100 µM
GI50 (M14 melanoma): 6.2 µM
TGI (M14 melanoma): > 100 µM
GI50 (RXF 393 renal): 23 µM
TGI (RXF 393 renal): > 100 µM
GI50 (SF-268 CNS): 4.21 µM
TGI (SF-268 CNS): 53.5 µM
GI50 (KM12 colon): 4.63 µM
TGI (KM12 colon): 17.6 µM
GI50 (UACC-257 melanoma): 9.6 µM
TGI (UACC-257 melanoma): 27.5 µM
GI50 (HCC-2998 colon): 11.8 µM
TGI (HCC-2998 colon): 45.9 µM

Cc1cc(Nc2ccc(F)cc2)nc(N2CCN(c3ccnc4cc(Cl)ccc34)CC2)n1
GI50 (NCI-H226 lung): 4.75 µM
TGI (NCI-H226 lung): > 100 µM
GI50 (CCRF-CEM leukemia): 2.99 µM
TGI (CCRF-CEM leukemia): > 100 µM
GI50 (HCT-15 colon): 2.27 µM
TGI (HCT-15 colon): > 100 µM
GI50 (A549 NSCLC): 3.75 µM
TGI (A549 NSCLC): > 100 µM
GI50 (HCT-116 colon): 2.15 µM
TGI (HCT-116 colon): > 100 µM
GI50 (NCI-H460 lung): 2.95 µM
TGI (NCI-H460 lung): > 100 µM
GI50 (RPMI-8226 leukemia): 2.25 µM
TGI (RPMI-8226 leukemia): > 100 µM
GI50 (K-562 leukemia): 2.49 µM
TGI (K-562 leukemia): > 100 µM
GI50 (PC-3 prostate): 1.79 µM
TGI (PC-3 prostate): > 100 µM
GI50 (HT29 colon): 2.96 µM
TGI (HT29 colon): > 100 µM
GI50 (COLO 205 colon): 1.8 µM
TGI (COLO 205 colon): 4.39 µM
GI50 (HOP-62 NSCLC): 4.06 µM
TGI (HOP-62 NSCLC): > 100 µM
GI50 (MCF7 breast): 2.69 µM
TGI (MCF7 breast): > 100 µM
GI50 (LOX IMVI melanoma): 2.94 µM
TGI (LOX IMVI melanoma): > 100 µM
GI50 (SW-620 colon): 3.44 µM
TGI (SW-620 colon): > 100 µM
GI50 (ACHN renal): 2.84 µM
TGI (ACHN renal): > 100 µM
GI50 (NCI/ADR-RES ovarian): 2.88 µM
TGI (NCI/ADR-RES ovarian): > 100 µM
GI50 (KM12 colon): 2.78 µM
TGI (KM12 colon): 75 µM
GI50 (HCC-2998 colon): 4.05 µM
TGI (HCC-2998 colon): > 100 µM

CC(C)(C)NCCC(O)c1cc2c(Cl)cc(Cl)cc2c2cc(C(F)(F)F)ccc12 (stereo unspecified)
GI50 (DU-145 prostate): 1.97 µM
TGI (DU-145 prostate): 3.5 µM
